From publication PMC6382696, “Drug Repurposing: The Anthelmintics Niclosamide and Nitazoxanide Are Potent TMEM16A Antagonists That Fully Bronchodilate Airways” (Frontiers in Pharmacology, 2019)
Read-outs that look alike come from different tables or passages of the source.

Target: T1, hTMEM16A (abc) (Homo sapiens, UniProt Q5XXA6, DEL476-501)
T1 sequence (Q5XXA6 with tags, fused parts or gaps isoform Q5XXA6-5 DEL539-564): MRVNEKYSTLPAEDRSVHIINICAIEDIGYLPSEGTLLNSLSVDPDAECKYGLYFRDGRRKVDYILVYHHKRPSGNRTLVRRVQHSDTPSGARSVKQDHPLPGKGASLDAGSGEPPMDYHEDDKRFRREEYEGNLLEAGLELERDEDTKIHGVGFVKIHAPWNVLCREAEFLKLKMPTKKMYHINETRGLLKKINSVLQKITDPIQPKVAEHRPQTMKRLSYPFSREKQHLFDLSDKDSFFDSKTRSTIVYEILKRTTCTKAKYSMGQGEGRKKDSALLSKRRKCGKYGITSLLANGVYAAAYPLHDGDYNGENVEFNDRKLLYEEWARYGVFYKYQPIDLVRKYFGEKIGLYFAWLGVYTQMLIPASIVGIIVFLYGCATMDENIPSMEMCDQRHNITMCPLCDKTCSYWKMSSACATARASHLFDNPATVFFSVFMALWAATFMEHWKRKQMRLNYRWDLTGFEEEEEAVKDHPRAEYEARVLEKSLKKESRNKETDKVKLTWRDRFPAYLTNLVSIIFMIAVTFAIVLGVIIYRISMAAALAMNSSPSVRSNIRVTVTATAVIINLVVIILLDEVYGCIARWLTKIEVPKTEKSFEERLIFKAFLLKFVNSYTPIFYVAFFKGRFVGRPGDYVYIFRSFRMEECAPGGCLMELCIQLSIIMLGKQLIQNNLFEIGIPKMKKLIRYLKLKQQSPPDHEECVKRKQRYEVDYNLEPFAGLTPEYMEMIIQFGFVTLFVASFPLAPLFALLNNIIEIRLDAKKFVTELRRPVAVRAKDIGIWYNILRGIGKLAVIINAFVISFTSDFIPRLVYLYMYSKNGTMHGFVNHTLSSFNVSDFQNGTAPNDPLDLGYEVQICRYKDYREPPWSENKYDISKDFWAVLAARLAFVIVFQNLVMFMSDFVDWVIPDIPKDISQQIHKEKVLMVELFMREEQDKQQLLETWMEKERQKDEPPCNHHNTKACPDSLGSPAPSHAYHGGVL
Experiment: TMEM16A halide-sensitive YFP (eYFP) high-throughput screening assay
Assay type: cell-based
Parameters: expressed in transfected cells
Conditions: for remaining activity at 5 µM / inhibition at 5 µM: 5 μM compound; for remaining activity at 5 µM: POC 0 = full block by benzbromarone, read-out: POC (percent of control) halide-sensitive YFP response in HTS; for inhibition at 5 µM: read-out: % inhibition of halide-sensitive YFP response during HTS
Experimental: The High-Throughput-Screening clone HEK293T:eYFP: TMEM16A(abc) stably expressing eYFP (H149Q,I153L) and human TMEM16A(abc) was generated by stable transfection followed by functional clone selection. HEK293T:eYFP (H149Q,I153L) was cultivated in propagation medium DMEM (PAN #P04-03550) containing 10% FBS (PAN #3302-P281402), 1x Pen/Strep (PAN #P06-07100), 1x L-glutamine (PAN #P04-80100), 10 mM HEPES (PAN #P05-01100) and 0.5 μg/ml puromycin (Sigma #P7255) and transfected with pIREShyg3:huTMEM16A(abc). Stable cell pool was generated by cultivation in propagation medium containing 0.5 μg/ml puromycin and 200 μg/ml hygromycin B for 20 days. Cell pool was then diluted in the same medium and seeded in 384-well microtiter plates. Grown clones were replicated into daughter plates using a CyBio Felix pipetting platform (Analytik Jena AG). Daughter plates were analyzed using the eYFP assay essentially as described in the HTS protocol below using a FLIPR-Tetra. Clones showing maximal quenching of eYFP fluorescence intensity after addition of trigger solution (assay buffer containing NaI and ionomycin) were selected for propagation from the mother plate and further characterized with regard to HTS assay development performance parameters including inhibition by the benchmark compound benzbromarone, S/B and relevant HTS quality control statistics (Z-factor, Z′-factor, RZ-factor, RZ′-factor). One clone was finally selected as HTS clone and used throughout the entire HTS campaign to identify TMEM16A antagonists.
For the HTS screen, the screening cell line HEK293T:eYFP(H149Q,I153L):TMEM16A(abc) stably expressing halide sensitive YFP (eYFP (H149Q,I153L)) and human TMEM16A(abc) were propagated in DMEM (PAN #P04-03550) containing 10% FBS (PAN #3302-P281402), 1x Pen/Strep (PAN #P06-07100), 1x L-glutamine (PAN #P04-80100), 10 mM HEPES (PAN #P05-01100), 0.5 μg/ml puromycin (Sigma #P7255), and 150 μg/ml hygromycin B (Life Technologies #10687-010) in Corning TC-treated flasks. Twenty four hours prior to the assay 11,000 cells were seeded per well in 30 μl assay plating medium [propagation medium containing 0.01% Pluronic F-68 (PAN #P08-2100)] in Corning CellBIND 384-Well Flat Clear Bottom Black Polystyrene Microplates (Corning #3683) and cultivated for 24 h at 37°C. Before initiating the fully automated and scheduled HTS sequence, cell plates were transferred to an incubator and stored at RT and 0% CO2. Library compounds were delivered in Greiner 384 PP plates (Greiner #784201) containing 1mM compound dissolved in DMSO in columns 1–22 and DMSO in columns 23 and 24 and were stored in a stacker at RT. Further dilutions of compounds were generated by fully automated liquid handling using a CyBio 384-well/25 μl pipetting head (Analytik Jena AG) by diluting 0.5 μl compound (1 mM in DMSO) in 20 μl assay buffer [1xHBSS (Life Technologies #14025050) containing 10 mM HEPES (PAN #P05-01100) and 0.01% Pluronic F-68 (PAN #P08-2100), adjusted to pH 7.4] in Greiner 384 PP plates (Greiner #784201). Intermediate compound plates contained 25 μM library compounds in assay buffer containing 2.5% DMSO in columns 1–22, assay buffer containing 2.5% DMSO as neutral control in column 23 and 100 μM Benzbromarone (Sigma #B5774) in assay buffer containing 2.5% DMSO in column 24 as ligand control (benchmark antagonist) and were stored in a stacker at RT. Simultaneous to compound dilution medium was aspirated from cell plates using a Biotek 405 microplate washer followed by washing the cells twice with 65 μl/well assay buffer. With the final aspiration of assay buffer, the residual volume was adjusted to 15 μl. […] Cell plates were incubated for 30 min at RT and 0% CO2. After incubation cell plates were transferred to a FLIPR-Tetra and 25 μl trigger solution [assay buffer containing 20 mM sodium iodide (Sigma #383112) and 4 μM ionomycin (Sigma #I0634; stock solution 10 mM in DMSO)] was added before reading iodide-quenching of eYFP fluorescence intensity. […]

[1] = HEK293T:eYFP:TMEM16A(abc), 30 min preincubation, 10 mM iodide, 2 μM ionomycin, read-out: IC50 in the eYFP HTS assay

SMILES | remaining activity at 5 µM [%] | inhibition at 5 µM [%] | IC50 (22-point dose-response, read-out: IC50, TMEM16A eYFP assay dose response of the HTS campaign) [nM] | IC50 [1] [nM] | IC50 (supplement, read-out: IC50, TMEM16A (abc) eYFP HTS assay) [nM]
N#Cc1c(C(F)(F)F)cc(O)n2c1nc1ccccc12 [1PBC] | 74.8 | 25.2 | 1050 |  | 
COc1cc([N+](=O)[O-])ccc1NC(=O)c1cc(Cl)c2ccccc2c1O [Cpd 4] | 61.1 ± 7.8 | 38.9 |  | 970 | 
O=C(Nc1ncc([N+](=O)[O-])s1)c1cccs1 [NTTP] |  |  |  |  | 2840
O=C(Nc1ccc([N+](=O)[O-])cc1Cl)c1cc(Cl)ccc1O [Niclosamide] | 69 ± 3.3 | 31 |  | 140 | 
